From patent US10183936B2, “Hepatitis B core protein allosteric modulators” (priority 2014, dated 2019)

Columns and labels:
[1] = test system: HBV viral production in AD38 cells; experiment: Viral load production in AD38 cells by quantitative PCR of the HBV core sequence in supernatant; format: cell-based; conditions: 10 μM compound, 6 days at 37° C., viral load in supernatant compared against DMSO control wells; for activity at 10 µM: Hepatitis B virus, 144 h, read-out: AD38 Viral Load (CpAM/DMSO %) at 10 μM
In short: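 AD38 cells seeded at 50,000/well, treated 6 days at 37° C with compound added as 10× solution in 10% DMSO. HBV core sequence in clarified supernatant quantified by TaqMan qPCR against known standards; viral load compared with DMSO control wells.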

AD38 cells = experiment: Viability of AD38 cells (Promega CellTiter-Glo) at the end of compound treatment; format: cell-based; conditions: 10 μM compound, 6 days, luminescence normalized against DMSO control wells (controls being 100%)
In short: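 AD38 cells seeded at 50,000/well received compound from a 10× solution in 10% DMSO and were incubated 6 days at 37° C. Viability was then read by CellTiter-Glo luminescence in tetracycline-free medium with 2% FBS and 1% DMSO, normalized to DMSO control wells (100%) and reported as percent viability.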

| SMILES | activity at 10 µM [1] [%] | AD38 Viability Normalized Result (CPAM/DMSO %) at 10 μM (AD38 cells) [%] | AD38 Viral Load (CpAM/DMSO %) at 10 μM [1] [%] |
| --- | --- | --- | --- |
| O=C(Nc1ccncn1)c1ccc2c(c1)NC(=O)c1cc(F)ccc1S2 [Compound 1344] | 96 | 102 |  |
| O=C(Nc1cncc(Cl)c1)c1ccc2c(c1)NC(=O)c1cc(F)ccc1S2 [Compound 1345] | 115 | 93 |  |
| CC(C)(C)OC(=O)C(Cc1cncnc1)NC(=O)c1ccc2c(c1)NC(=O)c1cc(F)ccc1S2 (centres unmarked) [Compound 1346, Tert-Butyl 2-(2-fluoro-11-oxo-10, 11-dihydrodibenzo [b,f] [1,4]thiazepine-8-carboxamido)-3-(pyrimidin-5-yl) propanoate] |  | 97 | 105 |
| O=C(NCc1cncnc1)c1ccc2c(c1)NC(=O)c1ccc(F)cc1S2 [Compound 1347] | 3 | 94 |  |
| O=C(NCCc1ccccn1)c1ccc2c(c1)NC(=O)c1ccc(F)cc1S2 [Compound 1348] | 0 | 107 |  |
| O=C(NCc1cnco1)c1ccc2c(c1)NC(=O)c1ccc(F)cc1S2 [Compound 1349] | 12 | 102 |  |
| O=C(Nc1ncco1)c1ccc2c(c1)NC(=O)c1cc(F)ccc1S2 [Compound 1353] | 50 | 97 |  |
| O=C(Nc1nc2ccccc2o1)c1ccc2c(c1)NC(=O)c1cc(F)ccc1S2 [Compound 1354] | 98 | 70 |  |
| O=C(NCc1cncs1)c1ccc2c(c1)NC(=O)c1ccc(F)cc1S2 [Compound 1356] | 3 | 101 |  |
| O=C1Nc2cc(CNCCc3ccccc3)ccc2Sc2ccccc21 [Compound 1357, 8-((phenethylamino)methyl) dibenzo [b,f] [1,4] thiazepin-11(10H)-one] | 39 | 115 |  |
| O=C(Nc1cccc(-c2ccccc2)c1)c1ccc2c(c1)NC(=O)c1ccc(F)cc1S2 [Compound 1358] | 15 | 72 |  |
| O=C(NC(CO)Cc1cncnc1)c1ccc2c(c1)NC(=O)c1cc(F)ccc1S2 (centres unmarked) [Compound 1361, 2-fluoro-N-(1-hydroxy-3-(pyrimidin-5-yl)propan-2-yl)-11-oxo-10, 11-dihydrodibenzo [b,f] [1,4] thiazepine-8-carboxamide] | 79 | 113 |  |
| O=C(NCCc1cncnc1)c1ccc2c(c1)NC(=O)c1ccc(F)cc1S2 [Compound 1362] | 19 | 98 |  |
| O=C(NCc1cccnc1)c1ccc2c(c1)NC(=O)c1cc(F)ccc1S2 [Compound 1364] | 1 | 102 |  |
| O=C(NCc1cccnc1)c1ccc2c(c1)NC(=O)c1ccc(F)cc1S2 [Compound 1365] | 2 | 105 |  |
| O=C(Nc1ccncc1)c1ccc2c(c1)NC(=O)c1ccc(F)cc1S2 [Compound 1366] | 12 | 93 |  |
| CC(=O)N(CCc1ccccc1)Cc1ccc2c(c1)NC(=O)c1ccccc1S2 [Compound 1367, N-((11-oxo-10, 11-dihydrodibenzo [b,f] [1,4]thiazepin-8-yl)methyl)-N-phenethyl acetamide] | 33 | 88 |  |
| O=C(NCCc1ccc(-c2ccccc2)cc1)c1ccc2c(c1)NC(=O)c1cc(F)ccc1S2 [Compound 1370] | 5 | 94 |  |
| O=C(NCCc1ccc(-c2ccccc2)cc1)c1ccc2c(c1)NC(=O)c1ccc(F)cc1S2 [Compound 1371] | 6 | 94 |  |
| O=C(NCc1cncnc1)c1ccc2c(c1)NC(=O)c1ccccc1[S+]2[O-] (centres unmarked) [Compound 1373] | 10 | 100 |  |
| O=C(NCCc1ccccn1)c1ccc2c(c1)NC(=O)c1ccccc1[S+]2[O-] (centres unmarked) [Compound 1374] | 1 | 98 |  |
| O=C(Nc1cccc(-c2ccccc2)c1)c1ccc2c(c1)NC(=O)c1ccccc1[S+]2[O-] (centres unmarked) [Compound 1375] | 11 | 89 |  |
| O=C(NCCc1cccnc1)c1ccc2c(c1)NC(=O)c1cc(F)ccc1S2 [Compound 1376] | 3 | 63 |  |
| O=C(NCCc1cccnc1)c1ccc2c(c1)NC(=O)c1ccc(F)cc1S2 [Compound 1377] | 5 | 65 |  |
| O=C(NCc1cnco1)c1ccc2c(c1)NC(=O)c1ccccc1[S+]2[O-] (centres unmarked) [Compound 1381] | 40 | 93 |  |
